The record followed here is ChEMBL document CHEMBL1255507, “Azole derivatives as histamine H3 receptor antagonists, part 2: C-C and C-S coupled heterocycles” (Bioorg Med Chem Lett, 2010).

Bounds are passed on as bounds.

Usually Ki stands for the equilibrium dissociation constant of an inhibitor or competing ligand from its target. High values mean a looser hold on the target, low ones a stronger hold on the target.

Test [1] has as its target T1, Histamine H3 receptor (Homo sapiens, UniProt Q9Y5N1). Briefly: Displacement of [125I]Iodoproxyfan from human histamine H3 receptor expressed in HEK293 cells. It counts as cell-based. (In general: Loss of bound radioactivity is the signal in a displacement assay; it reports binding, not function.)
For test [2], the target named is T1, Histamine H3 receptor. Briefly: Displacement of [3H]Methylhistamine from human histamine H3 receptor expressed in HEK293 cells. It counts as cell-based.

T1 sequence (Q9Y5N1 whole entry): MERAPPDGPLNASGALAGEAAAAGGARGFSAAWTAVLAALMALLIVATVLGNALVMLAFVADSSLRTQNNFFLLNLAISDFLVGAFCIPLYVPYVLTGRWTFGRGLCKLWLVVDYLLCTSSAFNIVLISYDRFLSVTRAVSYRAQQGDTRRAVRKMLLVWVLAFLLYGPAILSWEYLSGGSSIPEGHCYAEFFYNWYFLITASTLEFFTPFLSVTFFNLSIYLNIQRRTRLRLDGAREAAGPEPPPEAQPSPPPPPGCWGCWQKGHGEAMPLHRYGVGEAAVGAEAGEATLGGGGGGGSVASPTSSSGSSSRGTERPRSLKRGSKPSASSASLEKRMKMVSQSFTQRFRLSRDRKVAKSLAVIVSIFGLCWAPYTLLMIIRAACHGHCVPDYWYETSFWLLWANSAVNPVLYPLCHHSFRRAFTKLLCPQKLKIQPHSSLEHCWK

On to `c1ccc(-c2nc(SCCCN3CCCCC3)sc2-c2ccccc2)cc1`, for which the Ki in test [1] was 7.4 nM.

With `C1CCN(CCCOc2nc3c(s2)CN(CCCN2CCCCC2)CC3)CC1`, affinity in test [1] was put at a Ki of 20 nM.

The compound `CC(=O)c1sc(SCCCN2CCCCC2)nc1C` showed an inhibition constant Ki in test [1] greater than 1000 nM.

Compound `c1ccc(-c2nc(SCCCN3CCCCC3)oc2-c2ccccc2)cc1` showed a Ki in test [1] of 32 nM.

On to `c1ccc(-c2cnc(CCCCN3CCCCC3)o2)cc1`, for which, in test [1], the affinity, expressed as Ki, was 63 nM.

In the case of `c1cc(-c2nnc(SCCCN3CCCCC3)o2)ccn1`, the Ki in test [1] was found to be 187 nM.

In test [1], `c1cncc(-c2noc(CCCCN3CCCCC3)n2)c1` showed a Ki of 110 nM.

In the case of `c1cc(-c2nc(SCCCN3CCCCC3)nn2CCCN2CCCCC2)ccn1`, the Ki in test [2] stood at 18 nM.
